Laboratory results: US12138256B2, “Treatment of cardiopulmonary disorders” (Bayer Aktiengesellschaft, priority 2021, dated 2024)
Where “and” joins values, the source holds several entries; their conditions need not be identical. Equal entries are not always repeated.

Test system: thromboxane analog U46619 induced PAH in minipigs
Assay: Haemodynamics (PAP, BP) in the anesthetized thromboxane challenged PAH minipig after inhaled (nebulized) application (C-2.1)
Format: in vivo, Göttingen minipig
Settings: inhaled; for PAP % changes vs prevalue, mean: n = 3; for BP % change vs. baseline / PAP % change vs. baseline: individual animals
Procedure, shortened: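 Anesthetized, ventilated Göttingen minipigs (2-6 kg) given continuous infusion (0.3-0.75 μg/kg/min) to raise mean PAP above 25 mmHg, dosing starting after a 30 min plateau. Compound in 1% DMSO/0.2% citric acid, pH 8, nebulized via Aeroneb Pro into the inspiratory arm (~7 min; stock 300 μg/kg). PAP by Swan-Ganz catheter, BP via carotid catheter.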

[1] = 100 μg/kg nominal dose, time 80 min
[2] = 100 μg/kg nominal dose, time 90 min
[3] = 100 μg/kg nominal dose, time 100 min
[4] = 100 μg/kg nominal dose, time 110 min
[5] = 100 μg/kg nominal dose, time 120 min
[6] = 100 μg/kg nominal dose, time 130 min
[7] = 100 μg/kg nominal dose, time 140 min
[8] = 100 μg/kg nominal dose, time 150 min
[9] = 100 μg/kg nominal dose, time 160 min
[10] = 100 μg/kg nominal dose, time 170 min
[11] = 100 μg/kg nominal dose, time 180 min

O=C(O)c1ccc(CCN(CCc2ccccc2OCc2ccc(-c3ccc(C(F)(F)F)cc3)cc2Cl)[C@H]2CCCc3nc(C(=O)O)ccc32)cc1 [comparative example 11, (5S)-5-{[2-(4-carboxyphenyl)ethyl][2-(2-{[3-chloro-4′-(trifluoromethyl)[biphenyl]-4-yl]methoxy}phenyl)ethyl]amino}-5,6,7,8-tetrahydroquinoline-2-carboxylic acid]
PAP % changes vs prevalue, mean (10 μg/kg nominal dose, time 0 min): 0%
PAP % changes vs prevalue, mean (10 μg/kg nominal dose, time 10 min): 0.6%
PAP % changes vs prevalue, mean (10 μg/kg nominal dose, time 20 min): 0.2%
PAP % changes vs prevalue, mean (10 μg/kg nominal dose, time 30 min): −0.7%
PAP % changes vs prevalue, mean (10 μg/kg nominal dose, time 40 min): −1.5%
PAP % changes vs prevalue, mean (10 μg/kg nominal dose, time 50 min): −2.3%
PAP % changes vs prevalue, mean (10 μg/kg nominal dose, time 60 min): −3.5%
PAP % changes vs prevalue, mean (10 μg/kg nominal dose, time 70 min): −4.2%
PAP % changes vs prevalue, mean (10 μg/kg nominal dose, time 80 min): −3.7%
PAP % changes vs prevalue, mean (10 μg/kg nominal dose, time 90 min): −4.3%
PAP % changes vs prevalue, mean (10 μg/kg nominal dose, time 100 min): −5.3%
PAP % changes vs prevalue, mean (10 μg/kg nominal dose, time 110 min): −6.2%
PAP % changes vs prevalue, mean (10 μg/kg nominal dose, time 120 min): −6.7%
PAP % changes vs prevalue, mean (10 μg/kg nominal dose, time 130 min): −6.2%
PAP % changes vs prevalue, mean (10 μg/kg nominal dose, time 140 min): −7%
PAP % changes vs prevalue, mean (10 μg/kg nominal dose, time 150 min): −7.6%
PAP % changes vs prevalue, mean (10 μg/kg nominal dose, time 160 min): −7.6%
PAP % changes vs prevalue, mean (10 μg/kg nominal dose, time 170 min): −8.2%
PAP % changes vs prevalue, mean (10 μg/kg nominal dose, time 180 min): −8.0%
PAP % changes vs prevalue, mean (10 μg/kg nominal dose, time 190 min): −7.8%
PAP % changes vs prevalue, mean (10 μg/kg nominal dose, time 200 min): −7.3%
PAP % changes vs prevalue, mean (10 μg/kg nominal dose, time 210 min): −7.5%
PAP % changes vs prevalue, mean (10 μg/kg nominal dose, time 220 min): −7.2%
PAP % changes vs prevalue, mean (10 μg/kg nominal dose, time 230 min): −7.2%
PAP % changes vs prevalue, mean (10 μg/kg nominal dose, time 240 min): −7.6%
PAP % changes vs prevalue, mean (30 μg/kg nominal dose, time 0 min): 0%
PAP % changes vs prevalue, mean (30 μg/kg nominal dose, time 10 min): 0.3%
PAP % changes vs prevalue, mean (30 μg/kg nominal dose, time 20 min): −2.0%
PAP % changes vs prevalue, mean (30 μg/kg nominal dose, time 30 min): −4.6%
PAP % changes vs prevalue, mean (30 μg/kg nominal dose, time 40 min): −7.8%
PAP % changes vs prevalue, mean (30 μg/kg nominal dose, time 50 min): −9.8%
PAP % changes vs prevalue, mean (30 μg/kg nominal dose, time 60 min): −11.8%
PAP % changes vs prevalue, mean (30 μg/kg nominal dose, time 70 min): −14.1%
PAP % changes vs prevalue, mean (30 μg/kg nominal dose, time 80 min): −14.2%
PAP % changes vs prevalue, mean (30 μg/kg nominal dose, time 90 min): −14.4%
PAP % changes vs prevalue, mean (30 μg/kg nominal dose, time 100 min): −14.8%
PAP % changes vs prevalue, mean (30 μg/kg nominal dose, time 110 min): −15.3%
PAP % changes vs prevalue, mean (30 μg/kg nominal dose, time 120 min): −15.3%
PAP % changes vs prevalue, mean (30 μg/kg nominal dose, time 130 min): −15.5%
PAP % changes vs prevalue, mean (30 μg/kg nominal dose, time 140 min): −15.3%
PAP % changes vs prevalue, mean (30 μg/kg nominal dose, time 150 min): −16.3%
PAP % changes vs prevalue, mean (30 μg/kg nominal dose, time 160 min): −16.3%
PAP % changes vs prevalue, mean (30 μg/kg nominal dose, time 170 min): −14.9%
PAP % changes vs prevalue, mean (30 μg/kg nominal dose, time 180 min): −14.7%
PAP % changes vs prevalue, mean (30 μg/kg nominal dose, time 190 min): −15.1%
PAP % changes vs prevalue, mean (30 μg/kg nominal dose, time 200 min): −15.3%
PAP % changes vs prevalue, mean (30 μg/kg nominal dose, time 210 min): −13.8%
PAP % changes vs prevalue, mean (30 μg/kg nominal dose, time 220 min): −13.6%
PAP % changes vs prevalue, mean (30 μg/kg nominal dose, time 230 min): −12.8%
PAP % changes vs prevalue, mean (30 μg/kg nominal dose, time 240 min): −13.4%
PAP % changes vs prevalue, mean (100 μg/kg nominal dose, time 0 min): 0%
PAP % changes vs prevalue, mean (100 μg/kg nominal dose, time 10 min): −2.1%
PAP % changes vs prevalue, mean (100 μg/kg nominal dose, time 20 min): −7.2%
PAP % changes vs prevalue, mean (100 μg/kg nominal dose, time 30 min): −14.6%
PAP % changes vs prevalue, mean (100 μg/kg nominal dose, time 40 min): −18.1%
PAP % changes vs prevalue, mean (100 μg/kg nominal dose, time 50 min): −22.2%
PAP % changes vs prevalue, mean (100 μg/kg nominal dose, time 60 min): −25.1%
PAP % changes vs prevalue, mean (100 μg/kg nominal dose, time 70 min): −27.0%
BP % change vs. baseline [1]: 103.2% and 100.0% and 100.1%
PAP % change vs. baseline [1]: 103.3% and 100.0% and 98.5%
PAP % changes vs prevalue, mean [1]: −27.9%
BP % change vs. baseline [2]: 98.8% and 98.2% and 100.1%
PAP % change vs. baseline [2]: 98.8% and 102.2% and 99.6%
PAP % changes vs prevalue, mean [2]: −28.9%
BP % change vs. baseline [3]: 101.0% and 100.0% and 100.1%
PAP % change vs. baseline [3]: 99.4% and 97.3% and 97.5%
PAP % changes vs prevalue, mean [3]: −31.1%
BP % change vs. baseline [4]: 98.8% and 99.1% and 98.2%
PAP % change vs. baseline [4]: 94.0% and 90.4% and 94.4%
PAP % changes vs prevalue, mean [4]: −30.8%
BP % change vs. baseline [5]: 98.8% and 98.2% (2×)
PAP % change vs. baseline [5]: 87.4% and 80.2% and 88.8%
PAP % changes vs prevalue, mean [5]: −31.3%
BP % change vs. baseline [6]: 98.8% and 98.2% and 99.2%
PAP % change vs. baseline [6]: 84.3% and 75.6% and 86.1%
PAP % changes vs prevalue, mean [6]: −31.2%
BP % change vs. baseline [7]: 98.8% and 96.5% and 102.0%
PAP % change vs. baseline [7]: 82.2% and 69.4% and 82.1%
PAP % changes vs prevalue, mean [7]: −31.6%
BP % change vs. baseline [8]: 97.7% and 95.6% and 103.0%
PAP % change vs. baseline [8]: 80.0% and 67.4% and 77.3%
PAP % changes vs prevalue, mean [8]: −31.1%
BP % change vs. baseline [9]: 98.8% and 93.9% and 101.1%
PAP % change vs. baseline [9]: 78.2% and 66.2% and 74.6%
PAP % changes vs prevalue, mean [9]: −30.1%
BP % change vs. baseline [10]: 98.8% and 95.6% and 99.2%
PAP % change vs. baseline [10]: 78.1% and 65.9% and 72.4%
PAP % changes vs prevalue, mean [10]: −31.1%
BP % change vs. baseline [11]: 97.7% and 92.1% and 99.2%
PAP % change vs. baseline [11]: 78.5% and 62.7% and 72.2%
PAP % changes vs prevalue, mean [11]: −31.1%
BP % change vs. baseline (100 μg/kg nominal dose, time 190 min): 98.8% and 91.2% and 96.3%
